According to the supplement of paper PMC5908809:

What was measured:
[1] = tested on: normal primary NK cells, pool 3 (3 donors) (IL-2 2.5 ng/mL); test: drug sensitivity score (DSS) (DSS units); higher = more sensitive; extreme values may be limits of the assay; conditions: 72 h
SNK-6 (IL-2 2.5 ng/mL) [2] = test: as above; conditions: 72 h
[3] = tested on: normal primary NK cells, pool 2 (3 donors) (IL-2 2.5 ng/mL); test: as above; conditions: 72 h
NK-92 (IL-2 2.5 ng/mL) [4] = test: as above; conditions: 72 h
DERL-7 (IL-2 2.5 ng/mL) [5] = test: as above; conditions: 72 h
IMC-1 (IL-2 20 ng/mL) [6] = test: as above; conditions: 72 h
NK-YS (IL-2 2.5 ng/mL) [7] = test: as above; conditions: 72 h
NKL (IL-2 2.5 ng/mL) [8] = test: as above; conditions: 72 h
[9] = tested on: normal primary NK cells, pool 1 (3 donors), resting (IL-2 0 ng/mL); test: as above; conditions: 72 h
YT (IL-2 2.5 ng/mL) [10] = test: as above; conditions: 72 h
[11] = tested on: normal primary NK cells, pool 1 (3 donors) (IL-2 2.5 ng/mL); test: as above; conditions: 72 h
KAI3 (IL-2 2.5 ng/mL) [12] = test: as above; conditions: 72 h
KHYG-1 (IL-2 2.5 ng/mL) [13] = test: as above; conditions: 72 h
[14] = tested on: normal NK cells expanded with K562-aAPC; test: percent inhibition of viability; higher = more inhibition; conditions: 72 h, IL-2 2.5 ng/mL
Protocol: (§1)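 Drug sensitivity and resistance testing on K562-aAPC-expanded normal NK cells: 5 concentrations (10-fold steps over a 10,000-fold range), 72 h at 37 °C, viability by CellTiter-Glo normalised to DMSO and benzethonium chloride controls; DSS from the fitted curve.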

[15] = tested on: normal NK cells expanded with K562-aAPC; test: drug sensitivity score (DSS) (DSS units); higher = more sensitive; extreme values may be limits of the assay; conditions: 72 h; IL-2 2.5 ng/mL
Protocol: as §1

[16] = tested on: normal primary NK cells, pool 3 (3 donors) (IL-2 2.5 ng/mL); test: percent inhibition of viability; higher = more inhibition; conditions: 72 h
SNK-6 (IL-2 2.5 ng/mL) [17] = test: as above; conditions: 72 h
[18] = tested on: normal primary NK cells, pool 2 (3 donors) (IL-2 2.5 ng/mL); test: as above; conditions: 72 h
NK-92 (IL-2 2.5 ng/mL) [19] = test: as above; conditions: 72 h
DERL-7 (IL-2 2.5 ng/mL) [20] = test: as above; conditions: 72 h
IMC-1 (IL-2 20 ng/mL) [21] = test: as above; conditions: 72 h
NK-YS (IL-2 2.5 ng/mL) [22] = test: as above; conditions: 72 h
NKL (IL-2 2.5 ng/mL) [23] = test: as above; conditions: 72 h
[24] = tested on: normal primary NK cells, pool 1 (3 donors), resting (IL-2 0 ng/mL); test: as above; conditions: 72 h
YT (IL-2 2.5 ng/mL) [25] = test: as above; conditions: 72 h
[26] = tested on: normal primary NK cells, pool 1 (3 donors) (IL-2 2.5 ng/mL); test: as above; conditions: 72 h
KAI3 (IL-2 2.5 ng/mL) [27] = test: as above; conditions: 72 h
KHYG-1 (IL-2 2.5 ng/mL) [28] = test: as above; conditions: 72 h

COc1cc(O)c2c(c1)/C=C/C[C@H](O)[C@H](O)C(=O)/C=C\C[C@H](C)OC2=O [(5Z)-7-Oxozeaenol] (max concentration tested 10000 nM)
Conditions | drug sensitivity score
DERL-7 (IL-2 2.5 ng/mL) [5] | 14.1
IMC-1 (IL-2 20 ng/mL) [6] | 2.11
KAI3 (IL-2 2.5 ng/mL) [12] | 12.6
KHYG-1 (IL-2 2.5 ng/mL) [13] | 15.6
NK-92 (IL-2 2.5 ng/mL) [4] | 9.5
NK-YS (IL-2 2.5 ng/mL) [7] | 11
NKL (IL-2 2.5 ng/mL) [8] | 20.5
SNK-6 (IL-2 2.5 ng/mL) [2] | 8.87
YT (IL-2 2.5 ng/mL) [10] | 11.4
[1] | 7.72
[3] | 8.91
[9] | 12
[11] | 12.1
[15] | 8.28

percent inhibition of viability [%]
Conditions | 1 nM | 10 nM | 100 nM | 1000 nM | 10000 nM
DERL-7 (IL-2 2.5 ng/mL) [20] | -5.8 | 2.14 | 10.7 | 66.3 | 101
IMC-1 (IL-2 20 ng/mL) [21] | -4.21 | -3.28 | -4.71 | -7.11 | 48.9
KAI3 (IL-2 2.5 ng/mL) [27] | 0.25 | 0.75 | 5.8 | 59 | 105
KHYG-1 (IL-2 2.5 ng/mL) [28] | 0.21 | -0.62 | 3.17 | 83.9 | 109
NK-92 (IL-2 2.5 ng/mL) [19] | -20.1 | -30 | -17.5 | 26.2 | 104
NK-YS (IL-2 2.5 ng/mL) [22] | -3.96 | -2.39 | 8.28 | 41.9 | 105
NKL (IL-2 2.5 ng/mL) [23] | -8.24 | 17.5 | 38.5 | 80 | 110
SNK-6 (IL-2 2.5 ng/mL) [17] | -2.4 | -7.72 | -14.8 | 23.5 | 95
YT (IL-2 2.5 ng/mL) [25] | -2.81 | -5.3 | 6.58 | 46.2 | 105
[14] | -4.98 | -3.35 | -1.51 | 18.7 | 94.8
[16] | -13.2 | 9.87 | 4.11 | 13.6 | 98.2
[18] | -15.9 | 1.06 | 2.6 | 22.8 | 96.8
[24] | -25.1 | 10.7 | 9.8 | 54.5 | 92
[26] | -6.25 | 6.9 | 22.8 | 45.6 | 98.5

CC(C)C[C@@H](C(=O)N[C@H](C(=O)OC1CCCC1)c1ccccc1)[C@H](O)C(=O)NO [Tosedostat] (max concentration tested 10000 nM)
Conditions | drug sensitivity score
DERL-7 (IL-2 2.5 ng/mL) [5] | 18
IMC-1 (IL-2 20 ng/mL) [6] | 1.21
KAI3 (IL-2 2.5 ng/mL) [12] | 1.15
KHYG-1 (IL-2 2.5 ng/mL) [13] | 7.83
NK-92 (IL-2 2.5 ng/mL) [4] | 5.36
NK-YS (IL-2 2.5 ng/mL) [7] | 8.33
NKL (IL-2 2.5 ng/mL) [8] | 6.28
SNK-6 (IL-2 2.5 ng/mL) [2] | 0
YT (IL-2 2.5 ng/mL) [10] | 6.11
[1] | 1.63
[3] | 6.04
[9] | 15.1
[11] | 8
[15] | 2.81

percent inhibition of viability [%]
Conditions | 1 nM | 10 nM | 100 nM | 1000 nM | 10000 nM
DERL-7 (IL-2 2.5 ng/mL) [20] | 0.91 | 28.1 | 38.8 | 57.2 | 60.4
IMC-1 (IL-2 20 ng/mL) [21] | 1.56 | 3.44 | 2.86 | -8.8 | 34.8
KAI3 (IL-2 2.5 ng/mL) [27] | -9.18 | -2.01 | 1.91 | 5.58 | 19.7
KHYG-1 (IL-2 2.5 ng/mL) [28] | -2.21 | -0.34 | 2.84 | 38.9 | 56
NK-92 (IL-2 2.5 ng/mL) [19] | -7.95 | -5.73 | 1.42 | 28.5 | 39.5
NK-YS (IL-2 2.5 ng/mL) [22] | 1.05 | 7.39 | 20.1 | 32.9 | 43.8
NKL (IL-2 2.5 ng/mL) [23] | 2.1 | 17 | 15 | 11.9 | 77.3
SNK-6 (IL-2 2.5 ng/mL) [17] | 15.8 | -24.2 | -35 | -26.7 | -18.3
YT (IL-2 2.5 ng/mL) [25] | -4.4 | 5.94 | -1.61 | 16.7 | 64.4
[14] | -1.88 | 6.85 | 7.57 | 15.4 | 28.1
[16] | -8.47 | -19.6 | -9.22 | 2.66 | 28.9
[18] | -1.97 | -1.61 | 3.93 | 27.9 | 53.1
[24] | -9.12 | -11.9 | 19.5 | 68.8 | 83
[26] | 0.7 | -2.5 | 14.2 | 32.4 | 71.7

NCC(=O)Nc1ccc(-n2nc(C(F)(F)F)cc2-c2ccc3c(ccc4ccccc43)c2)cc1 (max concentration tested 25000 nM)
Conditions | drug sensitivity score
DERL-7 (IL-2 2.5 ng/mL) [5] | 1.36
IMC-1 (IL-2 20 ng/mL) [6] | 8.71
KAI3 (IL-2 2.5 ng/mL) [12] | 8.11
KHYG-1 (IL-2 2.5 ng/mL) [13] | 11.9
NK-92 (IL-2 2.5 ng/mL) [4] | 8.05
NK-YS (IL-2 2.5 ng/mL) [7] | 12.3
NKL (IL-2 2.5 ng/mL) [8] | 6.99
SNK-6 (IL-2 2.5 ng/mL) [2] | 9.36
YT (IL-2 2.5 ng/mL) [10] | 7.45
[1] | 6.06
[3] | 6.08
[9] | 1.49
[11] | 0.67
[15] | 7.63

percent inhibition of viability [%]
Conditions | 2.5 nM | 25 nM | 250 nM | 2500 nM | 25000 nM
DERL-7 (IL-2 2.5 ng/mL) [20] | -6.63 | 0.68 | 3.86 | -3.39 | 34.2
IMC-1 (IL-2 20 ng/mL) [21] | 1.94 | 6.76 | 5.99 | 19.6 | 101
KAI3 (IL-2 2.5 ng/mL) [27] | 13.1 | 14.3 | 13.5 | 14.9 | 104
KHYG-1 (IL-2 2.5 ng/mL) [28] | 9.05 | 11.9 | 21.5 | 43.8 | 84.5
NK-92 (IL-2 2.5 ng/mL) [19] | -3.92 | -7.91 | 18.1 | 14.3 | 106
NK-YS (IL-2 2.5 ng/mL) [22] | 2.51 | 6.9 | 13.3 | 53.1 | 101
NKL (IL-2 2.5 ng/mL) [23] | 9.41 | 11.2 | 10.1 | 18.2 | 76.8
SNK-6 (IL-2 2.5 ng/mL) [17] | 2.2 | 12.3 | 18 | 28 | 101
YT (IL-2 2.5 ng/mL) [25] | 8.95 | 9.77 | 11.9 | 10.6 | 104
[14] | 1.57 | 3.13 | 3.22 | 12.5 | 101
[16] | -4.48 | -1.93 | 9.24 | 3.09 | 101
[18] | -4.35 | -2.12 | 12.8 | 2.37 | 102
[24] | -7.15 | -17.6 | -5.36 | -14.6 | 41.8
[26] | 4.23 | -5.3 | 6.37 | -4.79 | 24.2

CCN1CCN(c2ccc(Nc3cc(N(C)C(=O)Nc4c(Cl)c(OC)cc(OC)c4Cl)ncn3)cc2)CC1 [NVP-BGJ398] (max concentration tested 1000 nM)
Conditions | drug sensitivity score
DERL-7 (IL-2 2.5 ng/mL) [5] | 0
IMC-1 (IL-2 20 ng/mL) [6] | 0
KAI3 (IL-2 2.5 ng/mL) [12] | 0
KHYG-1 (IL-2 2.5 ng/mL) [13] | 1.3
NK-92 (IL-2 2.5 ng/mL) [4] | 3.27
NK-YS (IL-2 2.5 ng/mL) [7] | 0
NKL (IL-2 2.5 ng/mL) [8] | 0.59
SNK-6 (IL-2 2.5 ng/mL) [2] | 0
YT (IL-2 2.5 ng/mL) [10] | 0.2
[1] | 0
[3] | 0.05
[9] | 1.18
[11] | 0
[15] | 0

percent inhibition of viability [%]
Conditions | 0.1 nM | 1 nM | 10 nM | 100 nM | 1000 nM
DERL-7 (IL-2 2.5 ng/mL) [20] | 2.66 | 5.38 | 2.13 | 4.05 | 8.48
IMC-1 (IL-2 20 ng/mL) [21] | -7.18 | 3.41 | -1.12 | 4.31 | -1.42
KAI3 (IL-2 2.5 ng/mL) [27] | -2.53 | -7.26 | -1.75 | 2.95 | 5.14
KHYG-1 (IL-2 2.5 ng/mL) [28] | -6.77 | -2.35 | -1.84 | 3.9 | 22.1
NK-92 (IL-2 2.5 ng/mL) [19] | -11.4 | 1.56 | 9.63 | 19.4 | 17.8
NK-YS (IL-2 2.5 ng/mL) [22] | -4.6 | -4.02 | -4.62 | -2.71 | 6.5
NKL (IL-2 2.5 ng/mL) [23] | -0.94 | -7.47 | 0.95 | 4.24 | 15
SNK-6 (IL-2 2.5 ng/mL) [17] | -1.53 | -0.29 | -14.4 | -13.1 | -6.84
YT (IL-2 2.5 ng/mL) [25] | -2.36 | 0.47 | -1.37 | 5.31 | 11.7
[14] | -0.93 | -6.78 | -4.9 | 4.74 | 2.68
[16] | -6.2 | 7.43 | 9.02 | 0.22 | 7.33
[18] | -8.08 | 5.48 | 12.3 | 1.57 | 12.6
[24] | -6.47 | 4.3 | 1.93 | 4.77 | 19.9
[26] | 4.34 | 9.33 | 11.6 | 4.78 | 12.1
